The source of these data is patent publication EP0378881B1, “Synthetic peptides and their use as universal carriers for the preparation of immunogenic conjugates suitable for the development of synthetic vaccines” ([…] S.p.A., priority 1989, dated 1993).

Entries after “also recorded” stand apart in the source; their conditions may differ. Like-named read-outs stand apart in the source and are kept apart here.

Experiment [1] has as its system T-cellular clones which are specific for TT=2. Type of experiment: cell-based, human.
Experiment [2] concerns Mononucleated cells of peripheral blood (PBMC). Type of experiment: cell-based, human.
Experiment [3] has as its system T-cellular clones which are specific for TT=2. Format: cell-based, human. The source holds these as a separate data set.
For experiment [4], the system named is anti-CSP antibody response. The conditions noted are these: cited from earlier work.

As to “Gln-Tyr-Ile-Lys-Ala-Asn-Ser-Lys-Phe-Ile-Gly-Ile-Thr-Glu (QYIKANSKFIGITE; printed: Gln-Tyr-Ile-Lys-Ala-Asn-Ser-Lys-Phe-Ile-Gly-Ile-Thr-Glu) [TT=2, synthetic peptide corresponding to TT segment 830-843]”, in experiment [1], the “minimum antigenic sequence (epitope) recognized by the T-cells” value is recorded as “single 831-842 epitope”. In experiment [2], the “TT=2-specific cells as share of all the T cells which were specific for the Tetanus Toxoid (TT)” value is on record as at most 5%. Moreover, in experiment [3], the “DR alleles in association with which the clone recognizes TT=2” value was “DR1, 2, 4w4 and 7; also recorded: DR5JVM and 6”; the “DR alleles that can be used as restriction molecules” value is “DR1-9, 4 x 4, 5JVM and DRw52b”; the “concentrations of the peptide at which all the clones react (dose-response plot)” value lay within 0.1 to 2 µM; the “isotype of the II-class molecules recognized by the clones” value was “restricted DRs”. For the same substance, in experiment [3], the “proliferation of the isolated clones in response to the antigen” value was “proliferate responsively”.

In the case of H-(Asn-Ala-Asn-Pro)n, the anti-CSP antibody response result in experiment [4] (CBA/ca mice) and in experiment [4] (DBA/2 mice) was “not able to induce” throughout.

With “NANP₄₀: polymer (Asn-Ala-Asn-Pro)₄₀ obtained by polymerizing the activated monomer”, the “responder status of the mouse strain” value is recorded as “natural responders” in experiment [4] (C57/8L/6 mice), “non-responders” in experiment [4] (CB4/ca mice) and “non-responders” in experiment [4] (DBA/2 mice).
